Data: article PMC11187217, “Anti-adhesive, anti-biofilm and fungicidal action of newly synthesized gemini quaternary ammonium salts” (Scientific Reports, 2024)

What was measured:
C. albicans ATCC 10231 = test: Adhesion of C. albicans to glass surface; assay type: cell-based, Candida albicans; conditions: 640 µM
Description: The effect of gemini QAS on the adhesion of C. albicans ATCC 10231 was determined using a modification of the method of Obłąk et al.. […] After incubation, the culture was centrifuged (1000 rcf, 5 min), and the resulting pellet was suspended in PBS (pH 7.4) until OD = 0.8 (λ = 590 nm). • In the case of testing the polystyrene surface, 100 µl of tested gemini QAS at concentrations of 20–1280 µM was added to the wells of a 96-well titration plate, incubated for 2 h at 37 °C, rinsed with sterile distilled water, and then spotted with 100 µl of the obtained culture and incubated at 37 °C for 4 h. After this time, the culture was removed, the plates were rinsed with sterile distilled water and placed in an oven (60 °C, 20 min). Then, crystal violet (0.1%) was added to the wells of the titration plate, stained for 5 min and rinsed with sterile distilled water until all traces of violet were removed from the rinsed water. Then the washing mixture (1% SDS, 50 mmol HCl, 100% isopropanol) was added. The absorbance of the samples was read using a spectrophotometer (BioTek 800 TS Absorbance Reader) at λ = 590 nm. […] Next, the washing mixture (1% SDS, 50 mmol HCl, 100% isopropanol) was added and the absorbance of the samples was read using a spectrophotometer (BioTek 800 TS Absorbance Reader) at λ = 590 nm. […] After this time, the colonies growing on the plates were counted. […]

[1] = system: C. albicans ATCC 10231 biofilm; test: Biofilm viability (LIVE/DEAD, confocal microscopy); assay type: cell-based, Candida albicans; conditions: glass surface, SYTO 9 / propidium iodide
Description: The viability of the biofilm formed by C. albicans ATCC 10231 cells was determined using the Filmtracer LIVE/DEAD Biofilm Viability Kit (Invitrogen).
The C. albicans culture was incubated in YPG medium at 37 °C for 18 h. After incubation, the culture was centrifuged (1000 rcf, 5 min), and the resulting pellet was suspended in PBS (pH 7.4) to obtain an OD = 1.5 (λ = 590 nm). 100 µl of C. albicans cell suspension was placed into the wells of the chamber slide plate and incubated for 24 h at 37 °C. After this time, the culture was removed and the plate was rinsed with sterile mQ water. Then, 200 µl of selected tested surfactants in appropriate concentrations was added to each well and incubated for 4 h. After incubation, the plate was rinsed with PBS, 100 µl of the LIVE/DEAD probe was added, and it was incubated for 30 min in the dark. After this time, the probe was removed and the wells were rinsed twice with PBS. Then, 100 µl of 4% formaldehyde in PBS (pH 7.0) was added and it was incubated for 30 min in the dark. Formaldehyde was removed and the wells were rinsed twice with PBS. After peeling off the walls of the plate, a drop of 50% glycerol in PBS was placed on each field and a glass slide was placed on it. The viability of the biofilm formed by C. albicans cells was imaged using a confocal microscope. The negative control was PBS.

SMILES: CCCCCCCCCCCC(=O)N(CCCN(CCC[N+](C)(C)C)C(=O)CCCCCCCCCCC)CCC[N+](C)(C)C [2xC12BrG3]
- Reduction of adhesion of C. albicans cells to glass (C. albicans ATCC 10231): approximately 80%

SMILES: CCCCCCCCCCCCCCCC(=O)N(CCCN(CCC[N+](C)(C)C)C(=O)CCCCCCCCCCCCCCC)CCC[N+](C)(C)C [2xC16BrG3]
- Impact on survival of C. albicans biofilm (membrane integrity) [1]: strong impact
